Results published in patent US9011853B2, “B7-H4 fusion proteins and methods of use thereof” (Amplimmune, Inc., priority 2009, dated 2015).

Columns and labels:
SJL mice = assay: PLP139-151-induced R-EAE model, clinical score and relapse; assay type: in vivo, mouse
Description: For PLP139-151-induced R-EAE, 6- to 7-wk-old female SJL mice were immunized s.c. with 100 μL of an emulsion containing 200 μg of M. tuberculosis H37Ra and 50 μg of […] (HSLGKWLGHPDKF) (SEQ ID NO:139) distributed over three spots on the flank. Individual animals were observed daily and clinical scores assessed in a blinded fashion on a 0-5 scale as shown in Table 11 (Miller, et al., Curr. Protocols Immulo., Chapter 12, Unit 15.1). Unless otherwise mentioned, all mice were age and sex-matched for all experiments.
Mice were randomly divided into four groups. For the disease prevention model, B7-H4-Ig or control IgG at 3 mg/kg was injected intraperitoneally (i.p.) on the same day as PLP130-151 priming. For the therapeutic model, B7-H4-Ig or control IgG at 3 mg/kg was given i.p. beginning on approximately Day 21 post PLP130-151 priming. In both cases, B7-H4-Ig was administrated, 3 times a week, for 2-4 weeks.
To determine the therapeutic benefit of B7-H4-Ig, murine B7-H4-Ig was tested in the PLP139-151-induced R-EAE mouse model both for prevention of disease (treatment begun on the same day of disease induction) and therapeutic intervention (treatment begun during the disease remission) settings (FIG. 33). In both cases the disease course was followed for about 2 months to assess clinical disease following the grading system shown in […].
Female SJL mice were first immunized with PLP139-151 peptide emulsified in CFA and then randomized into 2 groups for either prevention or therapeutic treatment. For each treatment regimen there were 2 subgroups, with one subgroup receiving Control IgG and the other subgroup receiving murine B7-H4-Ig. Both Control IgG and murine B7-H4-Ig were given at 3 mg/kg, 3 times a week for 4 weeks. Prevention treatment (FIG. 34) means that murine B7-H4-Ig or Control IgG was administered starting on the day at PLP immunization (t=0). Therapeutic treatment (FIG. 35) means that murine B7-H4-Ig or Control IgG was administered beginning on Day 21 (t=21). The data is presented as the mean clinical score over the 55 day time course with 5 mice per group, and the clinical scores and injection were conducted double blinded.
The effect of B7-H4-Ig treatment on the number of Treg cells in vivo was analyzed in this study. The effect of B7-H4-Ig on the number and phenotype of CD4^+ T cells infiltrating into the CNS following B7-H4-Ig treatment, the relevant site for activity in vivo, was determined. […] SJL mice were first immunized with PLP139-151 peptide. B7-H4-Ig treatment started during remission (Day 23). Mice received mouse Control IgG, 100 μg, or B7-H4-Ig at either 60 or 300 μg, 3 times per week for 2 weeks or 4 weeks. Half of the animals (5 mice from each group) were euthanized on Day 35, after 6 doses of B7-H4-Ig. The rest of the animals (5 mice from each group) were euthanized on Day 50, after 12 doses of B7-H4-Ig. Mouse spleens, draining lymph nodes, spinal cords and brains were collected, tissues were made into a single cell suspension and counted via the use of a hemocytometer, and analyzed for the presence of effector/memory CD4^+ T cells (CD4^+CD44^+) and Treg cells (CD4^+CD25^+FoxP3^+). Whole cerebellar and lumbar spinal cord tissue samples were snap frozen and processed as described above to analyze the number of CD4^+ and FoxP3^+ cells present within the CNS by histology.
Human B7-H4-Ig was also tested for its therapeutic efficacy in the PLP139-151-induced R-EAE mouse model. […]

CD4^+CD25^− T cells = assay: Enteroantigen specific CD4+CD25- proliferation assay with cells from treated mice; assay type: in vivo, mouse; conditions: Balb/c mice
Description: Extracts were prepared by removing the colon and cecum from mice and placing the content in PBS. This was sonicated 3 times for 30 seconds on ice, followed by centrifugation at 10,000 g for 10 min to remove insoluble material. The supernatant was collected, sterile filtered, and stored at −60° C. The protein concentration in the supernatants was typically 1 to 1.5 mg/mL as determined by the bicinchoninic acid (BCA) method.
Female wild-type Balb/c, 7 to 9 weeks of age, were injected with either 60 μg or 300 μg of B7-H4-Ig, intraperitoneally (IP), 3 times a week for 2 weeks. There were 5 mice in each group. B7-H4-Ig treated mice and also naïve control mice were euthanized for T cell isolation after 2 week treatment.
The CD4^+CD25^− T cells were obtained as follows: CD4^+ T cells were positively selected from spleen single-cell suspensions using a mouse anti-CD4 monoclonal antibody-coated DYNABEAD® and the DETACHABEAD® system (Dynal AS, Oslo, Norway) according to the manufacturer's instructions. Then the CD4^+ T cells ([…] assessed by flow cytometry) were separated into CD25^+ and CD25^− T cell populations by Miltenyi's magnetic bead technology (MACS®, Miltenyi Biotech, Belgisch Gladbach, Germany) using PE-labeled anti-CD25 monoclonal antibody, followed by the addition of anti-PE microbeads and depletion according to the manufacturer's instructions. […]

| Substance | clinical scores (average), R-EAE (SJL mice; 3 mg/kg i.p. 3 times a week for 4 weeks, preventative (t=0) and therapeutic (t=21) regimens, 0-5 scale (FIGS. 34, 35)) | disease symptoms during the acute phase of R-EAE (SJL mice; 1st in vivo study, treatment from the day of PLP139-151/CFA priming) | mean clinical score, primary relapse (SJL mice; both 3 mg/kg (60 μg/dose) and 15 mg/kg (300 μg/dose), three times a week from day 23 (FIG. 46)) | enteroantigen specific CD4+CD25− T effector cell response (CD4^+CD25^− T cells; 60 μg or 300 μg IP 3 times a week for 2 weeks (FIG. 52)) | Tregs from treated mice: blocking of enteroantigen priming and T cell proliferation (CD4^+CD25^− T cells; 60 μg or 300 μg IP 3 times a week for 2 weeks, vs Tregs from control mice (FIG. 51)) | mean clinical score, primary disease relapse (SJL mice; 5 or 25 mg/kg 3 times a week for 4 weeks from Day 23, vs Synagis (FIG. 48A)) | long-term relapse rate (SJL mice; 5 or 25 mg/kg 3 times a week for 4 weeks from Day 23, vs Synagis (FIG. 48B)) |
| --- | --- | --- | --- | --- | --- | --- | --- |
| B7-H4-Ig: B7-H4 extracellular domain fused to Ig Fc; bare label is the human protein in Example 3, murine protein in Examples 1, 2, 5, 7-11 | 0-0.5 | did not affect disease symptoms during the acute phase of R-EAE | significantly prevented the primary relapsing | barely affected | more potent in blocking enteroantigen priming and T cell proliferation | – | – |
| Human B7-H4-Ig: human B7-H4 extracellular domain fused to hinge, CH2 and CH3 regions of human immunoglobulin Cγ1 chain; representative SEQ ID NOs:114-137 | – | – | – | – | – | reduction of mean clinical score | reduction in long-term relapse rate |
